Where a name gives a salt, the structure may show the parent alone. Read-outs that look alike come from different tables or passages of the source. Some results are limits rather than exact numbers.

Data set [1] deals with GST-MEK (p45MEK) / GST-MAPK (p44MAP kinase) cascade (APK) (Homo sapiens, UniProt Q02750). Description: APK IC50 (cascade assay for inhibitors of the MAP kinase pathway). The data set is classed as biochemical. The procedure:
Cascade Assay for Inhibitors of the MAP Kinase Pathway
Incorporation of ^32P into myelin basic protein (MBP) is assayed in the presence of a glutathione S-transferase fusion protein containing p44MAP kinase (GST-MAPK) and a glutathione S-transferase fusion protein containing p45MEK (GST-MEK). The assay solution contains 20 mM HEPES, pH 7.4, 10 mM MgCl2, 1 mM EGTA, 50 μM [γ-^32P]ATP, 10 μg GST-MEK, 0.5 μg GST-MAPK and 40 μg MBP in a final volume of 100 μL. Reactions are stopped after 20 minutes by addition of trichloroacetic acid and filtered through a GFIC filter mat. ^32P retained on the filter mat is determined using a 120S Betaplate. Compounds are assessed at 10 μM for ability to inhibit incorporation of 32P.
To ascertain whether compounds are inhibiting GST-MEK or GST MAPK, two additional protocols are employed. In the first protocol, compounds are added to tubes containing GST-MEK, followed by addition of GST-MAPK, MBP and [γ-^32P]ATP. In the second protocol, compounds are added to tubes containing both GST-MEK and GST-MAPK, followed by MBP and [γ-^32P]ATP.
Compounds that show activity in both protocols are scored as MAPK inhibitors, while compounds showing activity in only the first protocol are scored as MEK inhibitors.

The next data set deals with colon 26 cells. Description: colon 26 cells IC50 (whole cell assay). The data set is classed as cell-based. The following applies: Mus musculus. The procedure: Whole Cell MAP Kinase Assay
To determine if compounds block activation of MAP kinase in whole cells, the following protocol is used. Cells are plated in multi-well plates and grown to confluence. Cells are serum-deprived overnight. […] After a 5-minute treatment with the growth factor, cells are washed with PBS, and lysed in a buffer consisting of 70 mM NaCl, 10 mM HEPES (pH 7.4), 50 mM glycerol phosphate, and 1% Triton X-100. Lysates are clarified by centrifugation at 13,000×g for 10 minutes. Five to fifteen micrograms of protein from the resulting supernatants are subjected to SDS/PAGE and Western blotting for phosphorylated MAP kinase levels.

Sequence of GST-MEK (p45MEK) / GST-MAPK (p44MAP kinase) cascade (APK) (Q02750 whole entry): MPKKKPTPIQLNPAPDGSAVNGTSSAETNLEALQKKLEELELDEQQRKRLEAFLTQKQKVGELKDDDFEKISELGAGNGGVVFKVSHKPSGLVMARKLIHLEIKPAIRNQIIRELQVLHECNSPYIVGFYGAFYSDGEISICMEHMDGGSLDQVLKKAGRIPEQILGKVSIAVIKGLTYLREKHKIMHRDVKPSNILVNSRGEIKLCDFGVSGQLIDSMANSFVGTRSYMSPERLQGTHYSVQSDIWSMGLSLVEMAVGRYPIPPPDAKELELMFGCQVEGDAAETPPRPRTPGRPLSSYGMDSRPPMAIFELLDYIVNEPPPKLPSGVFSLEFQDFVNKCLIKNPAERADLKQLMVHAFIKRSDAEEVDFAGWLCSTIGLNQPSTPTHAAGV

With `Cc1cc(I)ccc1Nc1c(C(=O)Oc2c(F)c(F)c(F)c(F)c2F)cc2nc[nH]c2c1F` [PD 254551, 7-fluoro-6-(4-iodo-2-methyl-phenylamino)-1H-benzoimidazole-5-carboxylic acid pentafluorophenyl ester], the 50% inhibitory concentration (IC50) (in general, the point on the concentration scale where inhibition reaches its midpoint) in data set [1] was 120 nM.

Consider `Cc1cc(I)ccc1Nc1c(C(=O)O)cc2nc[nH]c2c1F` [PD 205293, 7-fluoro-6-(4-iodo-2-methyl-phenylamino)-1H-benzoimidazole-5-carboxylic acid], for which the melting point (in general, the temperature of the solid-liquid transition) is 247 to 248 °C (dec.). In addition, in the data set with colon 26 cells (read-out: colon 26 cells, IC50), the half-maximal inhibitory concentration (IC50) is more than 10000 nM.

The compound `Cc1cc(I)ccc1Nc1c(C(=O)NOCC2CC2)cc2nc[nH]c2c1F` (as salt: salt) [PD 254552, 7-fluoro-6-(4-iodo-2-methyl-phenylamino)-1H-benzoimidazole-5-carboxylic acid cyclopropylmethoxy-amide] showed a melting point of 168 to 172 °C.

`Cc1cc(I)ccc1Nc1c(C(=O)NOCC2CC2)cc2nc[nH]c2c1F` [PD 254552, 7-fluoro-6-(4-iodo-2-methyl-phenylamino)-1H-benzoimidazole-5-carboxylic acid cyclopropylmethoxy-amide]: the IC50 in data set [1] was less than 10 nM; in the data set on colon 26 cells (read-out: Colon 26 Cells, 1 Hour Pretreatment, IC50), 20 nM.

For the origin of these results see US6469004B1, “Benzoheterocycles and their uses as MEK inhibitors” (Warner-Lambert Company, priority 1999, dated 2002).
